Experimental data from PubChem BioAssay (NCI).
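Growth conditions: 96-well plates. Treatment: test compound, 48 hours, 5 concentrations. Analysis: linear interpolation between bracketing concentrations; unreached endpoints set to highest concentration. GI50 = concentration required for 50% inhibition of growth. TGI marks complete inhibition of growth.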

Test system: MDA-MB-468 breast
Assay: growth of human tumour cells (NCI), 48 h

Row | Structure (SMILES) | GI50 [µM] | TGI [µM]
1 | Oc1ccc(/C=N\Nc2ccccn2)c(O)c1 | 2.43 | 8.56
2 | COc1ccc(-c2cc(-c3ccc(OC)c(OC)c3)nc(SCCCC(=O)NO)n2)cc1 | 1.18 | 3.44
3 | Cc1ccc(C(CN(C)C)C(=O)c2ccccc2)cc1 (stereo unspecified) | 1.32 | 3.61
4 | OCc1cn(Cc2cccc(Cl)c2)c2ccccc12 | 0.0134 | 0.0333
5 | CCN(CC)c1ccc(/C=C\c2cc(C)c3cc(C)ccc3n2)cc1 | 3.02 | 20.3
6 | CN(C)CCCn1c2c(c3cnccc3c1=O)C(=O)c1ccccc1-2 | 0.352 | 2.54
7 | Cc1cn(C2CC(F)C(CO)O2)c(=O)[nH]c1=O (stereo unspecified) | > 100 | > 100
8 | N[C@@H](Cc1c[nH]c2ccccc12)C(=O)NC1CCN(C(=O)c2c[nH]c3ccccc23)CC1 | 54.2 | > 100
9 | Cc1c(C#N)cccc1-c1cc(-c2cn(Cc3cccc(C(C)(C)O)n3)nn2)nc(N)n1 | 7.58 | 55.6
10 | N#Cc1c(C(=O)c2ccccc2)cnn1-c1ccccc1 | > 25 | > 25
11 | NC(=O)c1cnc(N[C@@H]2CCCC[C@@H]2N)nc1Nc1cccc(-n2nccn2)c1 | 3.27 | 11.5
12 | CC12CCC3C(CC=C4CC(O)CCC43C)C1C/C(=C\N1CCCC1)C2=O (stereo unspecified) | 51.2 | > 100
13 | CC(C)(C)N1CCC1C(N)=O (stereo unspecified) | > 100 | > 100
14 | c1ccc(Cc2nc3ccc(Nc4ncnc5ccccc45)cc3[nH]2)cc1 | 6.65 | 24.3
15 | Cc1ccc(C(=O)Nc2ccc(CN3CCN(C)CC3)c(C(F)(F)F)c2)cc1C#Cc1cnc(N)cc1C#N | 0.399 | 1.23
16 | C#Cc1cccc(Nc2ncnc3cc(OCCOC)c(OCCOC)cc23)c1 | 0.124 | 2.81
17 | COCCn1cc(-c2csc(-c3c[nH]c4ccccc34)n2)c2cccnc21 | 0.974 | 6.68
18 | C=C1[C@@H](C)[C@H]2[C@H](Cc3ccccc3)NC(=O)[C@]23OC(=O)/C=C/[C@H](O)CCC[C@@H](C)C/C=C/[C@H]3[C@@H]1O | 1.86 | > 100
19 | CC1=C([Se]CC(OC(=O)CC[Se]c2ccccc2)C(=O)NCCCCCC(=O)OCc2ccccc2)C(=O)c2ccccc2C1=O (stereo unspecified) | 1.93 | 4.63
20 | COc1ccc(/C=C/C(=O)c2cc3c(N)c(C(=O)Nc4ccccc4Cl)sc3nc2C)cc1 | 0.279 | 4.1
21 | CC(C)Oc1cc2c(cc1O)CC[C@@H]1[C@@H]2CC[C@]2(C)[C@@H](O)CC[C@@H]12 | 4.16 | 25.6
22 | CCCCn1c2cc(OCc3cn(-c4ccc(Cl)cc4)nn3)ccc2c2ccnc(C)c21 | 5.23 | > 33.3
23 | C(=N\Nc1ccccn1)/c1ccccn1 | 0.237 | 0.748
